Reference: ChEMBL document CHEMBL5543146 (J Med Chem, 2024)
Values belong to the molecule of their own block, whether it stands above or below them.

Assays:
[1] = molecular target: T1, Fibroblast growth factor receptor 1 (Homo sapiens, UniProt P11362); test: Inhibition of full length nanoluc-fused FGFR1 transfected in HEK293T cells assessed as target engagement incubated for 3 hrs in presence of K10 tracer by Nano BRET assay; assay type: cell-based
[2] = molecular target: T2, Fibroblast growth factor receptor 3 (Homo sapiens, UniProt P22607); test: Inhibition of full length nanoluc-fused FGFR3 transfected in HEK293T cells assessed as target engagement incubated for 3 hrs in presence of K10 tracer by Nano BRET assay; assay type: cell-based
Target sequence in this assay (P22607 whole entry, the tested form may be a part): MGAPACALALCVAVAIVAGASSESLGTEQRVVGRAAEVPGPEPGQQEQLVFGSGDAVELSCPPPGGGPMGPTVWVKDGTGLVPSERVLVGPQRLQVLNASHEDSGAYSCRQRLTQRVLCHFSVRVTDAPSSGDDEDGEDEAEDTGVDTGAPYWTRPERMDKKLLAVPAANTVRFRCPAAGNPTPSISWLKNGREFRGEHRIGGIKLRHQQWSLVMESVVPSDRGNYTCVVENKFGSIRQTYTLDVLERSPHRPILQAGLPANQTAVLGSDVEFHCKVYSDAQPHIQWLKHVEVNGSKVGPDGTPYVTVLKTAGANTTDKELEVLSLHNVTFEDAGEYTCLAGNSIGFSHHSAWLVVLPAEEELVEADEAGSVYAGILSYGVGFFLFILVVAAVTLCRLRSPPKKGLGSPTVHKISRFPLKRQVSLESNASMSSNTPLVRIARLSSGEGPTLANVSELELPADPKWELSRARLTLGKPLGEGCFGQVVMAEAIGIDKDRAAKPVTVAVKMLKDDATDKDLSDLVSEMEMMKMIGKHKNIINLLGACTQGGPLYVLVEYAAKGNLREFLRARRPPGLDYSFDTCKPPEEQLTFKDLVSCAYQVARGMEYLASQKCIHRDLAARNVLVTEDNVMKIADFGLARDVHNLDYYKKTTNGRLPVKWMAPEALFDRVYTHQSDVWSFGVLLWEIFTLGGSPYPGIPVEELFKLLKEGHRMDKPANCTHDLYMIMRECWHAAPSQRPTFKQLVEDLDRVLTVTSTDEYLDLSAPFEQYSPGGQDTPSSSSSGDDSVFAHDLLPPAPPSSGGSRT

[3] = system: Hep 3B2; test: cells; conditions: Homo sapiens, Hep3B, 96 h
Description: Antiproliferative activity against human Hep3B cells measured after 4 days by Celltiter-glo based luminescent assay

[4] = molecular target: T3, Fibroblast growth factor receptor 2 (Homo sapiens, UniProt P21802); test: Inhibition of full length nanoluc-fused FGFR2 transfected in HEK293T cells assessed as target engagement incubated for 3 hrs in presence of K10 tracer by Nano BRET assay; assay type: cell-based
T3 sequence (P21802 whole entry, the tested form may be a part): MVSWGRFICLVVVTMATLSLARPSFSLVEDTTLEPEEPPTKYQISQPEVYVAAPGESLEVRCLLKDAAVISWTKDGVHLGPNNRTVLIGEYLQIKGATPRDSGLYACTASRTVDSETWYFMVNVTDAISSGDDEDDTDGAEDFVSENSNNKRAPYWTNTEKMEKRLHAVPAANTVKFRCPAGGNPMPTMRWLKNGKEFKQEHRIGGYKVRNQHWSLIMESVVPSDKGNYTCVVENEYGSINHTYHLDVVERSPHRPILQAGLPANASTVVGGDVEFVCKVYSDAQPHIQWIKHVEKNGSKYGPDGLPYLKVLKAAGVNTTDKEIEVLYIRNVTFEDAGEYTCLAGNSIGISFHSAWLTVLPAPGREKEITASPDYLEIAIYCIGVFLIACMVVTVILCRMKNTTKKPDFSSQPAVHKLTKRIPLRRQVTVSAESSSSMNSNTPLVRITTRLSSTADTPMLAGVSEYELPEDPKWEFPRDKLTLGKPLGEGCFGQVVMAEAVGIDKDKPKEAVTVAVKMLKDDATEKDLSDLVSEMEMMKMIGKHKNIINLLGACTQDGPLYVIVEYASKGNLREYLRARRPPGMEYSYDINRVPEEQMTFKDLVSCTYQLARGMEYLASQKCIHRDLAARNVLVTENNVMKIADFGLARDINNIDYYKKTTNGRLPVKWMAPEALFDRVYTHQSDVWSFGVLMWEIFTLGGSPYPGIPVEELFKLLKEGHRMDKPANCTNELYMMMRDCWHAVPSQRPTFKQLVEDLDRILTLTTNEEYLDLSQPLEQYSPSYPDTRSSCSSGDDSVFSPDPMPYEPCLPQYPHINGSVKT

[5] = molecular target: T4, Fibroblast growth factor receptor 4 (Homo sapiens, UniProt P22455); test: Inhibition of N-terminal GST tagged cytoplasmic domain human FGFR4 (460 to 802 residues) expressed in Escherichia coli BL21 (DE3) using CSox as substrate incubated for 240 mins in presence of ATP by hotspot assay
Target sequence in this assay (P22455 whole entry, the tested form may be a part): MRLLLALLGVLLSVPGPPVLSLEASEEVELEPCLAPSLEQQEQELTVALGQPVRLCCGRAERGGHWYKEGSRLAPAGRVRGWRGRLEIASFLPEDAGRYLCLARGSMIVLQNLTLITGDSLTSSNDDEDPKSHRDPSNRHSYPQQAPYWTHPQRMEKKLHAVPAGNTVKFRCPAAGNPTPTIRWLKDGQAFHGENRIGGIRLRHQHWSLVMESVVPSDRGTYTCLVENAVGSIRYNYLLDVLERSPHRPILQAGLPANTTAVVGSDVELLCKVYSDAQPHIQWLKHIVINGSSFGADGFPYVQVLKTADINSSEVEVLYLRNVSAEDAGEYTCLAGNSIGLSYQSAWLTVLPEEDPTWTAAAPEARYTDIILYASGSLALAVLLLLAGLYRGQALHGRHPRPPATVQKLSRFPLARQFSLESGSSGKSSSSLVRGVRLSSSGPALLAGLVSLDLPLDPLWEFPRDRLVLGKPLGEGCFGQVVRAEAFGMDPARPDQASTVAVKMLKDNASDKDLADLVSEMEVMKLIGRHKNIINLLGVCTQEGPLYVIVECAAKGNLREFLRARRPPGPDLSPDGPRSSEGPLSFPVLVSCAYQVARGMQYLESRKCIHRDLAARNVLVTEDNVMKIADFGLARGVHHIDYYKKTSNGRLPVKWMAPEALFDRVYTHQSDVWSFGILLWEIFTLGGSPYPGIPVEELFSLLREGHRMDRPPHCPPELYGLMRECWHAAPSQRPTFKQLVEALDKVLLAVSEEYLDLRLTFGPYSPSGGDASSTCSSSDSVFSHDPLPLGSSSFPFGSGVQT

[6] = molecular target: T4, Fibroblast growth factor receptor 4; test: Inhibition of N-terminal GST tagged cytoplasmic domain human FGFR4 (460 to 802 residues) expressed in Escherichia coli BL21 (DE3) using CSox as substrate assessed as residual activity at 5 uM incubated for 240 mins in presence of ATP by hotspot assay relative to control
Target sequence in this assay (P22455 22-802 limits assumed): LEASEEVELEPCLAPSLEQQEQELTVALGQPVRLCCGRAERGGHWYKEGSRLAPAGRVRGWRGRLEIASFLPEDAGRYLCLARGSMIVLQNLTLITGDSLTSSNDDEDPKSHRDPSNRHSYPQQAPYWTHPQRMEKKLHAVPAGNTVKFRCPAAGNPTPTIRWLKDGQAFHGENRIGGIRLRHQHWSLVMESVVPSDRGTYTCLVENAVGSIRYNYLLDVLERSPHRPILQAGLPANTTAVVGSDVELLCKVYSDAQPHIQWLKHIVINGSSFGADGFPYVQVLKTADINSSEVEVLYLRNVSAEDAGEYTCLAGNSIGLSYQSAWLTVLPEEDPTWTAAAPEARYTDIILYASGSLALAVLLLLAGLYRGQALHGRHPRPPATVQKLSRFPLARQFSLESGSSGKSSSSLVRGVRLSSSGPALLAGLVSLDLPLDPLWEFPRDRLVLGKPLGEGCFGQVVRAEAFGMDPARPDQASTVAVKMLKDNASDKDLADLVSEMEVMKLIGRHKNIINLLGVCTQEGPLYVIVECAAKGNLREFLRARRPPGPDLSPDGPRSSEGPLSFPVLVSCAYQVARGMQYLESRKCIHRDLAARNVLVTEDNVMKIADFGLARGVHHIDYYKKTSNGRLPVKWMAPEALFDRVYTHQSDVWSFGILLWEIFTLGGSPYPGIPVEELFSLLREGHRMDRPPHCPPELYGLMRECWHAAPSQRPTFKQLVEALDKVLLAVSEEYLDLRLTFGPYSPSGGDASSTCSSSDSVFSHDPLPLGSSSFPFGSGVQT

[7] = molecular target: MAP kinase-activated protein kinase 2 (Homo sapiens, UniProt P49137); test: Inhibition of human MAPKAPK2 using KKLNRTLSVA as substrate in presence of ATP by hotspot assay
[8] = molecular target: T4, Fibroblast growth factor receptor 4; test: Inhibition of full length nanoluc-fused FGFR4 transfected in HEK293T cells assessed as target engagement incubated for 3 hrs in presence of K10 tracer by Nano BRET assay; assay type: cell-based
Target sequence in this assay (P22455 whole entry, the tested form may be a part): as the sequence (P22455 whole entry, the tested form may be a part) above

[9] = molecular target: T3, Fibroblast growth factor receptor 2; test: Inhibition of human FGFR2 in presence of ATP by hotspot assay
[10] = molecular target: T4, Fibroblast growth factor receptor 4; test: Binding affinity to N-terminal GST tagged cytoplasmic domain human FGFR4 (460 to 802 residues) expressed in Escherichia coli BL21 (DE3) assessed as inhibition constant using sox as substrate incubated for 30 mins followed by enzyme addition and measured after 120 mins in presence of ATP by PhosphoSens CSox-based continuous assay
Target sequence in this assay (P22455 whole entry, the tested form may be a part): as above

[11] = molecular target: Ribosomal protein S6 kinase beta-2 (Homo sapiens, UniProt Q9UBS0); test: Inhibition of human wild type S6K2 using RBER-CHKtide as substrate in presence of ATP by hotspot assay
Sequence of Ribosomal protein S6 kinase beta-2 (Q9UBS0 whole entry): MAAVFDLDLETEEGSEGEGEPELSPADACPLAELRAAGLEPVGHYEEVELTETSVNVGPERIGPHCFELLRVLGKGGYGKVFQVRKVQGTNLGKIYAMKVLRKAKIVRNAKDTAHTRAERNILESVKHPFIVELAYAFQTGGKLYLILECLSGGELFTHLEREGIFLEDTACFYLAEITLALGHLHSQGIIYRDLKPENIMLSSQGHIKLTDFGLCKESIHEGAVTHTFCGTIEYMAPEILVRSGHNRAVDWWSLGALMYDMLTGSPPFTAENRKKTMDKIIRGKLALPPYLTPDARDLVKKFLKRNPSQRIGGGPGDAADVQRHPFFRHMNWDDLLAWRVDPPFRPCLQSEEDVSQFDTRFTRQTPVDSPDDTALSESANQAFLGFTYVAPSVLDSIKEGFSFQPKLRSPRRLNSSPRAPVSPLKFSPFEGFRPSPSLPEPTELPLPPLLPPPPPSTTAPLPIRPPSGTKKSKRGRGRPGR

[12] = molecular target: T2, Fibroblast growth factor receptor 3; test: Inhibition of human wild type FGFR3 using polyEY as substrate in presence of ATP by hotspot assay
Target sequence in this assay (P22607 whole entry, the tested form may be a part): as the sequence (P22607 whole entry, the tested form may be a part) above

[13] = molecular target: MAP kinase-activated protein kinase 3 (Homo sapiens, UniProt Q16644); test: Inhibition of human MAPKAPK3 using KKLNRTLSVA as substrate in presence of ATP by hotspot assay
Sequence of MAP kinase-activated protein kinase 3 (Q16644 whole entry): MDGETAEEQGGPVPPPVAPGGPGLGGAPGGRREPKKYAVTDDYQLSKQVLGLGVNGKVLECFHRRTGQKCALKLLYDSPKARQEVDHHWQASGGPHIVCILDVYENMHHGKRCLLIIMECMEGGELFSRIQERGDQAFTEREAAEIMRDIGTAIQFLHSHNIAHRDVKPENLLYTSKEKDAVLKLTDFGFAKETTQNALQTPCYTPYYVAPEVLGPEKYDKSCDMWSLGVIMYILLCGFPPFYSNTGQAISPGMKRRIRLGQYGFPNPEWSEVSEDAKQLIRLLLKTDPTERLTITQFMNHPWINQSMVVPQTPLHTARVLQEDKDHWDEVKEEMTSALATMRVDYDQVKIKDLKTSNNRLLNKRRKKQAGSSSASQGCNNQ

[14] = molecular target: T1, Fibroblast growth factor receptor 1; test: Inhibition of human FGFR1 using poly[Glu:Tyr] (4:1) as substrate in presence of ATP by hotspot assay
[15] = molecular target: T5, Dual specificity protein kinase TTK (Homo sapiens, UniProt P33981); test: Inhibition of human wild type TTK using RBER-CHKtide as substrate in presence of ATP by hotspot assay
T5 sequence (P33981 whole entry): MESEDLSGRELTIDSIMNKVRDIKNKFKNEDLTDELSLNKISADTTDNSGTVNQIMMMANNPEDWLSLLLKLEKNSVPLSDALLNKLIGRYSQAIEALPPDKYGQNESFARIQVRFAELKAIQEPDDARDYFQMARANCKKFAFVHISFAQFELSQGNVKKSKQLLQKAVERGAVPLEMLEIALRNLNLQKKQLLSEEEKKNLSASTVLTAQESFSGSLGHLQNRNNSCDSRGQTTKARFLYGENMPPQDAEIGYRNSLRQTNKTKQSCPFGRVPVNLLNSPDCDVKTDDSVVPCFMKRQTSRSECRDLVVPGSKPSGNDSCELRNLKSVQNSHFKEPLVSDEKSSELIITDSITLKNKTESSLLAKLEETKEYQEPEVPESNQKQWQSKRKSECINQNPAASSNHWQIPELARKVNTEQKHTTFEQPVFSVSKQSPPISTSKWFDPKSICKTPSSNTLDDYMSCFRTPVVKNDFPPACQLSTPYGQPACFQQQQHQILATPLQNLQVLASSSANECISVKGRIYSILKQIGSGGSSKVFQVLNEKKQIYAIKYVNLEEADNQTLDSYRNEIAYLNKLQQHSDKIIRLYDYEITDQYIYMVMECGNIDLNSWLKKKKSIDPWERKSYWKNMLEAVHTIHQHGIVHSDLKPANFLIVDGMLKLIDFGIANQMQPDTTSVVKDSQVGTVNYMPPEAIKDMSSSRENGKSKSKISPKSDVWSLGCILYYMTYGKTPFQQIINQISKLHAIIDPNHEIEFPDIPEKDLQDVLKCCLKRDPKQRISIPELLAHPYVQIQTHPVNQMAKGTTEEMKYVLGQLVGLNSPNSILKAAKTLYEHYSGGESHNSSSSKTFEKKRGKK

[16] = molecular target: T4, Fibroblast growth factor receptor 4; test: Inhibition of N-terminal GST tagged cytoplasmic domain human FGFR4 (460 to 802 residues) expressed in Escherichia coli BL21 (DE3) by phosphosen-csox based assay
Target sequence in this assay (P22455 whole entry, the tested form may be a part): as the sequence (P22455 whole entry, the tested form may be a part) above

[17] = Metabolic stability in human liver microsomes assessed as compound remaining measured after 2 hrs in presence of NADPH regenerating system measured upto 120 mins by LC-MS analysis; assay type: ADME, Microsome; conditions: read-out: Stability
[18] = molecular target: T2, Fibroblast growth factor receptor 3; test: Binding affinity to FGFR3 (unknown origin) assessed as change in melting temperature by differential scanning fluorimetry analysis

T1 sequence (P11362 whole entry, the tested form may be a part): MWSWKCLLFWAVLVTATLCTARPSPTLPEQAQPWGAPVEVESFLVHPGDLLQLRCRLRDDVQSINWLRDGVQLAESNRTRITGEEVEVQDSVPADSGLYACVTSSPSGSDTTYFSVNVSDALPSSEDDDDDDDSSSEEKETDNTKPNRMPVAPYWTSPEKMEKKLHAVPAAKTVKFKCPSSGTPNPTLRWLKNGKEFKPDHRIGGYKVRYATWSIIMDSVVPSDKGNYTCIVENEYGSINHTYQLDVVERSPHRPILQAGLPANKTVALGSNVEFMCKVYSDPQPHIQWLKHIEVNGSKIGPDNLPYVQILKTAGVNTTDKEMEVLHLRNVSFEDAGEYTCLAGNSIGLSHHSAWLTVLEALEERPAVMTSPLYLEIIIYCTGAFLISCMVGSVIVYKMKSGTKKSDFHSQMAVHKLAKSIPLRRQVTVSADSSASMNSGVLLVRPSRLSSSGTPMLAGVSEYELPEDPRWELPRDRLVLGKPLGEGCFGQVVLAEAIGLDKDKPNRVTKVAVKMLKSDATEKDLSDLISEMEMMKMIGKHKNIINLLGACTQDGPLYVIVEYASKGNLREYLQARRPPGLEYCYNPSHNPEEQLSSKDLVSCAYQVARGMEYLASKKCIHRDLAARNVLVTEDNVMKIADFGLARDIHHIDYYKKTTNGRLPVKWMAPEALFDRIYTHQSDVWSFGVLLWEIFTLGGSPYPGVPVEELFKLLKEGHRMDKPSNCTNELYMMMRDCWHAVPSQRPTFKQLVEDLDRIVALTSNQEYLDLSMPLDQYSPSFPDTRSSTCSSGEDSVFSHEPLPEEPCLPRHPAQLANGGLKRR

SMILES: C=CC(=O)Nc1cccc(C)c1Nc1ncc2cc(-c3c(Cl)c(OC)cc(OC)c3Cl)ccc2n1
- EC50 [1]: 4.26 µM
- EC50 [2]: 2240 nM
- EC50 [3]: 62 nM
- EC50 [4]: 3300 nM

SMILES: COc1cc(OC)cc(-c2ccc3nc(Nc4ncccc4[N+](=O)[O-])ncc3c2)c1
- Activity [6]: 92.1%
- IC50 [5]: > 5 µM

SMILES: COc1cc(OC)cc(-c2ccc3nc(Sc4ccnc(F)n4)ncc3c2)c1
- Activity [6]: > 100%
- IC50 [5]: > 5 µM

SMILES: COc1cc(OC)cc(-c2ccc3ncncc3c2)c1
- Activity [6]: 93.1%
- IC50 [5]: > 5 µM

SMILES: COc1cc(OC)cc(-c2ccc3nc(Nc4nc(C)ccc4[N+](=O)[O-])ncc3c2)c1
- Activity [6]: 53.6%
- IC50 [5]: > 5 µM

SMILES: COc1cc(OC)cc(-c2ccc3nc(Sc4ccnc(Cl)n4)ncc3c2)c1
- Activity [6]: 82.6%
- IC50 [5]: > 5 µM

SMILES: COc1cc(OC)cc(-c2ccc3nc(Sc4nc(Cl)ncc4F)ncc3c2)c1
- Activity [6]: 96.5%
- IC50 [5]: > 5 µM

SMILES: COc1cc(OC)cc(-c2ccc3nc(-c4cccc5cnc(Cl)nc45)ncc3c2)c1
- Activity [6]: 96.5%
- IC50 [5]: > 5 µM

SMILES: COc1cc(OC)cc(-c2ccc3nc(-n4ccc5cnc(Cl)nc54)ncc3c2)c1
- IC50 [5]: > 5 µM

SMILES: COc1cc(OC)cc(-c2ccc3nc(Sc4ncccc4[N+](=O)[O-])ncc3c2)c1
- Activity [6]: 97.9%
- IC50 [5]: > 5 µM

Further lines, results first:

- IC50 [5]: 4.45 µM
SMILES: COc1cc(OC)cc(-c2ccc3nc(Sc4nc(Cl)ccc4[N+](=O)[O-])ncc3c2)c1

- IC50 [7]: > 5 µM
- EC50 [8]: 30 nM
- EC50 [1]: > 10 µM
- EC50 [2]: > 10000 nM
- EC50 [3]: 5 nM
- IC50 [9]: > 5000 nM
- Ki [10]: 37.9 nM
- IC50 [11]: 4.48 nM
- IC50 [12]: > 5 µM
- IC50 [13]: > 5 µM
- IC50 [14]: > 5 µM
- IC50 [15]: > 5 µM
- IC50 [16]: 4.5 nM
- EC50 [4]: > 10000 nM
- IC50 [5]: < 0.0005 µM
SMILES: COc1cc(OC)cc(-c2ccc3nc(Nc4nc(Cl)ccc4[N+](=O)[O-])ncc3c2)c1

- IC50 [5]: 2.09 µM
SMILES: COc1cc(OC)c(Cl)c(-c2ccc3ncncc3c2)c1Cl

- EC50 [8]: 52 nM
- EC50 [2]: 1430 nM
- IC50 [9]: 490 nM
- Ki [10]: 5.7 nM
- IC50 [11]: 18.2 nM
- IC50 [12]: > 5 µM
- IC50 [15]: > 5 µM
- IC50 [16]: 1.2 nM
- EC50 [4]: 1290 nM
- IC50 [5]: < 0.0005 µM
SMILES: COc1cc(OC)c(Cl)c(-c2ccc3nc(Nc4nc(Cl)ccc4[N+](=O)[O-])ncc3c2)c1Cl

- EC50 [8]: 2260 nM
- Activity [6]: 89.4%
- EC50 [1]: 0.867 µM
- remaining at 2 h [17]: > 80%
- EC50 [2]: 1780 nM
- EC50 [3]: 1070 nM
- EC50 [4]: 867 nM
- IC50 [5]: 1.7 µM
- ΔTm [18]: 4.5 °C
SMILES: COc1cc(OC)c(Cl)c(-c2ccc3nc(Nc4ncccc4[N+](=O)[O-])ncc3c2)c1Cl
